From patent publication US10758534B2 (Vertex Pharmaceuticals Incorporated, priority 2014, dated 2020)

target: T1, F508del (Homo sapiens, UniProt P13569, DEL508-508); test: Protocol 1: membrane potential optical assay (FLIPR III, voltage sensing dye), identification of potentiator compounds; type: cell-based; settings: Table 3, compounds of Table 1
T1 construct: expressed in transfected cells
How it was run: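 NIH 3T3 fibroblasts stably expressing F508del were cultured at 27° C for 24 hrs for temperature correction, then treated with compounds or DMSO and loaded with a voltage-sensing redistribution dye. Forskolin added with a Cl⁻ gradient activated the channel; membrane-potential fluorescence on FLIPR III reported increased gating.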

T1 sequence (P13569 with tags, fused parts or gaps DEL508-508): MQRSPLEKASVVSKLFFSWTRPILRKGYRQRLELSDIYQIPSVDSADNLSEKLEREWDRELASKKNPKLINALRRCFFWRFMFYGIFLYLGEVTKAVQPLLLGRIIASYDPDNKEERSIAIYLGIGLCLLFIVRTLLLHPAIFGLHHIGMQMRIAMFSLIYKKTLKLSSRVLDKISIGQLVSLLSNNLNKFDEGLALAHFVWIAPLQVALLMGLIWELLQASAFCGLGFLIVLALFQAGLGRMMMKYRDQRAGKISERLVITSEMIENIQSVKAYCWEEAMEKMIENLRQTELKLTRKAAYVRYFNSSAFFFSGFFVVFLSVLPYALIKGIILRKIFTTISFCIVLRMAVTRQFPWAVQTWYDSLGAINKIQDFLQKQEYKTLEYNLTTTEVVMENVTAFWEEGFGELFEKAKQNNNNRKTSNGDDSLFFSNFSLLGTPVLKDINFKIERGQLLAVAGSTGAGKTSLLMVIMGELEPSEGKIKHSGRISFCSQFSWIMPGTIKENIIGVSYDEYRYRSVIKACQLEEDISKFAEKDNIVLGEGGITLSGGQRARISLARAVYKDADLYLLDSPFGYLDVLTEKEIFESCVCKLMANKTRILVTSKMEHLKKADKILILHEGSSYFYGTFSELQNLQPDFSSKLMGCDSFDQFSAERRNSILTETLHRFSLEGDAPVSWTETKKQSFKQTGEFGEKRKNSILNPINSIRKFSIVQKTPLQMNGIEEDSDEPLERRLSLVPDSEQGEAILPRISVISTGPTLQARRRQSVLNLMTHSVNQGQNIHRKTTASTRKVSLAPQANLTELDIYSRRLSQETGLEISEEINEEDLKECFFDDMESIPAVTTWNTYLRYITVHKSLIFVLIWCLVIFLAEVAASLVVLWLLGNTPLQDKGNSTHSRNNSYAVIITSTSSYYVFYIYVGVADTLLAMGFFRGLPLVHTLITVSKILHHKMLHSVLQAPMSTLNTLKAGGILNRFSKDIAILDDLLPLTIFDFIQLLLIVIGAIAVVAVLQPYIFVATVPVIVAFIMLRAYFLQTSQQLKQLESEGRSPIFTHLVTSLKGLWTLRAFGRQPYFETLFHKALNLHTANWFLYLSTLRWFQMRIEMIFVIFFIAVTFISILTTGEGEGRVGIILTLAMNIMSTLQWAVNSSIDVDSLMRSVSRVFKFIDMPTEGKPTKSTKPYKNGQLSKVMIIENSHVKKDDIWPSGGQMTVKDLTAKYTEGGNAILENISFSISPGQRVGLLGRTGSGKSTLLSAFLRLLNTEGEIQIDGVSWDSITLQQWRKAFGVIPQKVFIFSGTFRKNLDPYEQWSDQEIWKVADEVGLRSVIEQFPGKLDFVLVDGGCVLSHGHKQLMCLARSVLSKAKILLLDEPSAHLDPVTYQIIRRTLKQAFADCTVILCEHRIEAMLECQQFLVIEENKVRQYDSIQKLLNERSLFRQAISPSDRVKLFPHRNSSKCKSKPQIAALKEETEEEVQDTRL

Question: With `CC(C)(C)c1ccc(C(=O)NS(=O)(=O)c2cccc(N)n2)c(N2CCC(C3CC3)C2(C)C)n1` (stereo not shown) [Compound 1974] as the compound, how does the EC30 read?
Answer: The EC30 was “+++ (“+++” means <3 uM)”.

Question: For `CC(C)COc1cc(F)cc(-c2ccc(C(=O)NS(=O)(=O)c3ccn[nH]3)c(N3C[C@H](C)CC3(C)C)n2)c1` [Compound 1176, 6-(3-fluoro-5-isobutoxy-phenyl)-N-(1H-pyrazol-5-ylsulfonyl)-2-[(4R)-2,2,4-trimethylpyrrolidin-1-yl]pyridine-3-carboxamide], which EC30 is on record?
Answer: Its EC30 is “+++ (“+++” means <3 uM)”.

Question: `C[C@@H]1CN(c2nc(-c3cc(F)ccc3F)ccc2C(=O)NS(=O)(=O)c2ccc[nH]c2=O)C(C)(C)C1` [Compound 1954, 6-(2,5-difluorophenyl)-N-[(2-oxo-1H-pyridin-3-yl)sulfonyl]-2-[(4S)-2,2,4-trimethylpyrrolidin-1-yl]pyridine-3-carboxamide] was tested. Which EC30 did it give?
Answer: The EC30 was “+++ (“+++” means <3 uM)”.

Question: `CC(C)COc1cc(F)cc(-c2ccc(C(=O)NS(=O)(=O)c3cccc(N)n3)c(N3CCC4(CC3)CC4)n2)c1` [Compound 973, N-[(6-amino-2-pyridyl)sulfonyl]-2-(6-azaspiro[2.5]octan-6-yl)-6-(3-fluoro-5-isobutoxy-phenyl)pyridine-3-carboxamide] was tested. Which EC30 did it give?
Answer: Its EC30 is “+++ (“+++” means <3 uM)”.

Question: Which EC30 does the source give for `COc1cccc(-c2cnc(N3CC(C)CC3(C)C)c(C(=O)NS(=O)(=O)c3cccc(N)n3)c2)n1` (stereo not shown) [Compound 1861, N-[(6-amino-2-pyridyl)sulfonyl]-5-(6-methoxy-2-pyridyl)-2-(2,2,4-trimethylpyrrolidin-1-yl)pyridine-3-carboxamide] here?
Answer: The EC30 was “+++ (“+++” means <3 uM)”.

Question: `CC(C)COc1cc(F)cc(-c2ccc(C(=O)NS(=O)(=O)c3cccc(N)n3)c(OCC3CCCC3)n2)c1` [Compound 1450, N-[(6-amino-2-pyridyl)sulfonyl]-2-(cyclopentylmethoxy)-6-(3-fluoro-5-isobutoxy-phenyl)pyridine-3-carboxamide] was tested. Which EC30 did it give?
Answer: The EC30 was “+++ (“+++” means <3 uM)”.

Question: Which EC30 does the source give for `CC(C)Oc1ccc(-c2nc(N3C[C@H](C)CC3(C)C)ccc2C(=O)NS(=O)(=O)c2cccc(N)n2)cn1` [Compound 1491, N-[(6-amino-2-pyridyl)sulfonyl]-2-(6-isopropoxy-3-pyridyl)-6-[(4R)-2,2,4-trimethylpyrrolidin-1-yl]pyridine-3-carboxamide] here?
Answer: The EC30 was “++ (“++” means between 3 uM and 10 uM)”.

Question: With `CC(C)Oc1ccc(-c2ccc(C(=O)NS(=O)(=O)c3cccc(N)n3)c(N3CCC[C@H](C)C3)n2)cn1` [Compound 836, N-[(6-amino-2-pyridyl)sulfonyl]-6-(6-isopropoxy-3-pyridyl)-2-[(3S)-3-methyl-1-piperidyl]pyridine-3-carboxamide] as the compound, how does the EC30 read?
Answer: The EC30 was “++ (“++” means between 3 uM and 10 uM)”.

Question: For `COc1ccc(F)cc1-c1ccc(C(=O)NS(=O)(=O)c2ccc[nH]c2=O)c(Oc2c(C)cc(C)cc2C)n1` [Compound 1151, 6-(5-fluoro-2-methoxy-phenyl)-N-[(2-oxo-1H-pyridin-3-yl)sulfonyl]-2-(2,4,6-trimethylphenoxy)pyridine-3-carboxamide], which EC30 is on record?
Answer: Its EC30 is “++ (“++” means between 3 uM and 10 uM)”.

Question: With `CC(C)COc1cc(F)cc(-c2ccc(C(=O)NS(=O)(=O)c3cccc(N)n3)c(N3CC(C(F)(F)F)CC3(C)C)n2)c1` (stereo not shown) [Compound 1788, N-[(6-amino-2-pyridyl)sulfonyl]-2-[2,2-dimethyl-4-(trifluoromethyl)pyrrolidin-1-yl]-6-(3-fluoro-5-isobutoxy-phenyl)pyridine-3-carboxamide] as the compound, how does the EC30 read?
Answer: Its EC30 is “+++ (“+++” means <3 uM)”.

Question: Which EC30 does the source give for `CC1CN(c2nc(-c3cnc(OC(C)C)nc3)ccc2C(=O)NS(=O)(=O)c2cccc(N)n2)C(C)(C)C1` (stereo not shown) [Compound 844, N-[(6-amino-2-pyridyl)sulfonyl]-6-(2-isopropoxypyrimidin-5-yl)-2-(2,2,4-trimethylpyrrolidin-1-yl)pyridine-3-carboxamide] here?
Answer: The EC30 was “++ (“++” means between 3 uM and 10 uM)”.

Question: With `CCN(CC)c1ccc(-c2ccc(C(=O)NS(=O)(=O)c3cccc(N)n3)c(N3CC(C)CC3(C)C)n2)cn1` (stereo not shown) [Compound 796, N-[(6-amino-2-pyridyl)sulfonyl]-6-[6-(diethylamino)-3-pyridyl]-2-(2,2,4-trimethylpyrrolidin-1-yl)pyridine-3-carboxamide] as the compound, how does the EC30 read?
Answer: Its EC30 is “+++ (“+++” means <3 uM)”.

Question: For `CC(=O)N1CCC(c2ccc(C(=O)NS(=O)(=O)c3cccc(N)n3)c(N3C[C@@H](C)CC3(C)C)n2)CC1` [Compound 1634, 6-(1-acetyl-4-piperidyl)-N-[(6-amino-2-pyridyl)sulfonyl]-2-[(4S)-2,2,4-trimethylpyrrolidin-1-yl]pyridine-3-carboxamide], which EC30 is on record?
Answer: Its EC30 is “++ (“++” means between 3 uM and 10 uM)”.

Question: For `CC(C)COc1cc(F)cc(-c2ccc(C(=O)NS(=O)(=O)c3cccc(N)n3)c(OC(C)C3CCCC3)n2)c1` (stereo not shown) [Compound 1374, N-[(6-amino-2-pyridyl)sulfonyl]-2-(1-cyclopentylethoxy)-6-(3-fluoro-5-isobutoxy-phenyl)pyridine-3-carboxamide], which EC30 is on record?
Answer: The EC30 was “+++ (“+++” means <3 uM)”.

Question: For `CC1CN(c2ncc(-c3cccc(C(F)(F)F)c3)cc2C(=O)NS(=O)(=O)c2cccc(N)n2)C(C)(C)C1` (stereo not shown) [Compound 1950, N-[(6-amino-2-pyridyl)sulfonyl]-5-[3-(trifluoromethyl)phenyl]-2-(2,2,4-trimethylpyrrolidin-1-yl)pyridine-3-carboxamide], which EC30 is on record?
Answer: Its EC30 is “+++ (“+++” means <3 uM)”.

Question: Which EC30 does the source give for `CC(C)Oc1ccccc1-c1ccc(C(=O)NS(=O)(=O)N2CC[C@H](N)C2)c(N2C[C@@H](C)CC2(C)C)n1` [Compound 1897, N-[(3S)-3-aminopyrrolidin-1-yl]sulfonyl-6-(2-isopropoxyphenyl)-2-[(4S)-2,2,4-trimethylpyrrolidin-1-yl]pyridine-3-carboxamide] here?
Answer: The EC30 was “+++ (“+++” means <3 uM)”.

Question: For `CCOc1cccc2c1CN(Cc1ccc(C(C)C)cc1)C2(C)C(=O)NS(=O)(=O)c1cccc(F)n1` (stereo not shown) [Compound 1655, 4-ethoxy-N-[(6-fluoro-2-pyridyl)sulfonyl]-2-[(4-isopropylphenyl)methyl]-1-methyl-isoindoline-1-carboxamide], which EC30 is on record?
Answer: The EC30 was “+++ (“+++” means <3 uM)”.

Question: Which EC30 does the source give for `Cc1ccc(OCC(C)(C)C)nc1-c1ccc(C(=O)NS(=O)(=O)c2cccc(N)n2)c(N2CC(C)CC2(C)C)n1` (stereo not shown) [Compound 1645, N-[(6-amino-2-pyridyl)sulfonyl]-6-[6-(2,2-dimethylpropoxy)-3-methyl-2-pyridyl]-2-(2,2,4-trimethylpyrrolidin-1-yl)pyridine-3-carboxamide] here?
Answer: The EC30 was “+++ (“+++” means <3 uM)”.

Question: Which EC30 does the source give for `COc1cccc(-c2nc(N3CC(C)CC3(C)C)c(C(=O)NS(=O)(=O)c3cccc(N)n3)cc2C)c1` (stereo not shown) [Compound 833, N-[(6-amino-2-pyridyl)sulfonyl]-6-(3-methoxyphenyl)-5-methyl-2-(2,2,4-trimethylpyrrolidin-1-yl)pyridine-3-carboxamide] here?
Answer: Its EC30 is “+++ (“+++” means <3 uM)”.

Question: How did the EC30 turn out when `CC(Oc1nc(N2C[C@@H](C)CC2(C)C)c(C(=O)NS(=O)(=O)c2cccc(N)n2)cc1F)C1CCCCC1` (stereo partly drawn) [Compound 1730, N-[(6-amino-2-pyridyl)sulfonyl]-6-(1-cyclohexylethoxy)-5-fluoro-2-[(4S)-2,2,4-trimethylpyrrolidin-1-yl]pyridine-3-carboxamide] was run?
Answer: The EC30 was “+++ (“+++” means <3 uM)”.

Question: Which EC30 does the source give for `Cc1cc(C)c(Oc2nc(-c3ccccc3C)ccc2C(=O)NS(=O)(=O)c2cccc(N)n2)c(C)c1` [Compound 1120, N-[(6-amino-2-pyridyl)sulfonyl]-6-(o-tolyl)-2-(2,4,6-trimethylphenoxy)pyridine-3-carboxamide] here?
Answer: Its EC30 is “+++ (“+++” means <3 uM)”.

Question: `CCOc1ccc(-c2ccc(C(=O)NS(=O)(=O)c3nccnc3N)c(Oc3c(C)cc(C)cc3C)n2)cc1` [Compound 1019, N-(3-aminopyrazin-2-yl)sulfonyl-6-(4-ethoxyphenyl)-2-(2,4,6-trimethylphenoxy)pyridine-3-carboxamide] was tested. Which EC30 did it give?
Answer: Its EC30 is “+++ (“+++” means <3 uM)”.

Question: How did the EC30 turn out when `CC1CN(c2ncc(-c3cc(Cl)cc(Cl)c3)cc2C(=O)NS(=O)(=O)c2cccc(N)n2)C(C)(C)C1` (stereo not shown) [Compound 1721, N-[(6-amino-2-pyridyl)sulfonyl]-5-(3,5-dichlorophenyl)-2-(2,2,4-trimethylpyrrolidin-1-yl)pyridine-3-carboxamide] was run?
Answer: Its EC30 is “+++ (“+++” means <3 uM)”.

Question: How did the EC30 turn out when `CC(C)Oc1ccc(-c2ccc(C(=O)NS(=O)(=O)c3cccc(N)n3)c(N3CCC(C(F)(F)F)CC3)n2)cn1` [Compound 1043, N-[(6-amino-2-pyridyl)sulfonyl]-6-(6-isopropoxy-3-pyridyl)-2-[4-(trifluoromethyl)-1-piperidyl]pyridine-3-carboxamide] was run?
Answer: The EC30 was “+++ (“+++” means <3 uM)”.

Question: With `CC(=O)C1CC=C(c2ccc(C(=O)NS(=O)(=O)c3cccc(N)n3)c(Oc3c(C)cc(C)cc3C)n2)CC1` (stereo not shown) [Compound 1615, 6-(4-acetylcyclohexen-1-yl)-N-[(6-amino-2-pyridyl)sulfonyl]-2-(2,4,6-trimethylphenoxy)pyridine-3-carboxamide] as the compound, how does the EC30 read?
Answer: Its EC30 is “+++ (“+++” means <3 uM)”.

Question: How did the EC30 turn out when `CC(C)COc1cc(F)cc(-c2ccc(C(=O)NS(=O)(=O)c3ccc(O)cc3)c(N3C[C@@H](C)CC3(C)C)n2)c1` [Compound 1750, 6-(3-fluoro-5-isobutoxy-phenyl)-N-(4-hydroxyphenyl)sulfonyl-2-[(4S)-2,2,4-trimethylpyrrolidin-1-yl]pyridine-3-carboxamide] was run?
Answer: Its EC30 is “+++ (“+++” means <3 uM)”.

Question: How did the EC30 turn out when `CC(C)Oc1ccc(-c2ccc(C(=O)NS(=O)(=O)c3cccc(N)n3)c(N3CC4CCCC4C3)n2)cn1` (stereo not shown) [Compound 1107, 2-(3,3a,4,5,6,6a-hexahydro-1H-cyclopenta[c]pyrrol-2-yl)-N-[(6-amino-2-pyridyl)sulfonyl]-6-(6-isopropoxy-3-pyridyl)pyridine-3-carboxamide] was run?
Answer: The EC30 was “+++ (“+++” means <3 uM)”.

Question: How did the EC30 turn out when `COc1cc(F)c(-c2ccc(C(=O)NS(=O)(=O)c3cccc(N)n3)c(Oc3c(C)cc(C)cc3C)n2)cc1F` [Compound 984, N-[(6-amino-2-pyridyl)sulfonyl]-6-(2,5-difluoro-4-methoxy-phenyl)-2-(2,4,6-trimethylphenoxy)pyridine-3-carboxamide] was run?
Answer: Its EC30 is “+++ (“+++” means <3 uM)”.
